pIC50: −log10 of the molar value.

The first assay concerns the target T1, Potassium channel subfamily K member 2 (Homo sapiens, UniProt O95069).
T1 sequence (O95069 whole entry): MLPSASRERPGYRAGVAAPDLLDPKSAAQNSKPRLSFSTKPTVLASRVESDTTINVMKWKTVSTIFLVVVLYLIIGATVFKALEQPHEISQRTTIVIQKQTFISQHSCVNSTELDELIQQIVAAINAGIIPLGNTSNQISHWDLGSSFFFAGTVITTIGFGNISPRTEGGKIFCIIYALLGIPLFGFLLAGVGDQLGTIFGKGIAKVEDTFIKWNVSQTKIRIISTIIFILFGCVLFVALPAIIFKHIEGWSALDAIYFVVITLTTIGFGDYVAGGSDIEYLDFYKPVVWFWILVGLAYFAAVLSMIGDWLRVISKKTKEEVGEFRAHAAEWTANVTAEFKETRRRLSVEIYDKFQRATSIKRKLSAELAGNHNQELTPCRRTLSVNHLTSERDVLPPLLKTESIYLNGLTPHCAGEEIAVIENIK
Put plainly: Thallium flux assay.
The compound `Cc1cc(C#Cc2ccccc2)cc(F)c1NC(=O)c1cc(NC(=O)OC(C)(C)C)ccc1Cl` [US20240190824, Compound 29] had a pIC50 of 6.68.

`CC(C)(C)OC(=O)Nc1ccc(Cl)c(C(=O)Nc2c(F)cc(C#Cc3ccccc3)cc2F)c1` [US20240190824, Compound 30] had a pIC50 of 6.66.

In turn, `Cc1cc(C#Cc2ccccc2)cnc1NC(=O)c1cc(OCC2CCOC2)ccc1Cl` (stereo unspecified) [US20240190824, Compound 85] showed a pIC50 of 6.31.

`Cc1cc(C#Cc2cccc(F)c2)nc(C)c1NC(=O)c1cc(NC(=O)OC(C)(C)C)ccc1Cl` [US20240190824, Compound 11] had a pIC50 of 6.39.

In turn, `Cc1cc(COc2ccc(Cl)c(C(=O)Nc3ncc(C#Cc4ccccc4)cc3C)c2)on1` [US20240190824, Compound 83] gave a pIC50 of 6.41.

Another assay has as its target T1, Potassium channel subfamily K member 2. Nature of the assay: TREK-1 Manual Patch Clamp (hMPC) assay. Here is the method:
TBDCHO-K1 cells stably expressing human TREK-1 or HEK293 cells stably expressing human TREK-2 are plated on glass coverslips, and voltage clamped in the whole-cell configuration of the patch clamp technique. Cells were voltage clamped at a holding potential of −80 mV and the stepped to 0 mV for 500 msec. The voltage was subsequently ramped from −120 mV to +80 mV over a 500 msec duration. This step-ramp protocol was repeated every 10 sec.
For orientation: Patch clamp records ionic current or voltage across a cell membrane.
For the compound `Cc1cc(C#Cc2cccc(F)c2)nc(C)c1NC(=O)c1cc(NC(=O)OC(C)(C)C)ccc1Cl` [US20240190824, Compound 11], the pIC50 was 7.49.

One may read the pIC50 as the negative decadic logarithm of the IC50, by convention in mol/L.

Source of the values: BindingDB's records for patent US20240190824 (Ono Pharmaceutical Co., 2024).
